Measured values taken from patent US20220187282A1, “CARDIOMYOCYTE PROLIFERATION” (The Council of the Queensland Institute of Medical Research, priority 2019, published 2022).
Where two headings read alike, the source gives them in different places.

Tests used:
Format in all cases: biochemical
kinases [1] = target: kinases (Homo sapiens, UniProt Q14004); conditions: Test Conc(μM) 1
kinases [2] = target: kinases (Homo sapiens, UniProt Q16539)
kinases [3] = target: kinases (Homo sapiens, UniProt Q14289); conditions: PTK2B (FAK2) *Mn* Z-Lyte SP; Test Conc(μM):ATP Conc(μM) 1:5
Sequence of kinases (Homo sapiens, UniProt Q14289) (Q14289 whole entry): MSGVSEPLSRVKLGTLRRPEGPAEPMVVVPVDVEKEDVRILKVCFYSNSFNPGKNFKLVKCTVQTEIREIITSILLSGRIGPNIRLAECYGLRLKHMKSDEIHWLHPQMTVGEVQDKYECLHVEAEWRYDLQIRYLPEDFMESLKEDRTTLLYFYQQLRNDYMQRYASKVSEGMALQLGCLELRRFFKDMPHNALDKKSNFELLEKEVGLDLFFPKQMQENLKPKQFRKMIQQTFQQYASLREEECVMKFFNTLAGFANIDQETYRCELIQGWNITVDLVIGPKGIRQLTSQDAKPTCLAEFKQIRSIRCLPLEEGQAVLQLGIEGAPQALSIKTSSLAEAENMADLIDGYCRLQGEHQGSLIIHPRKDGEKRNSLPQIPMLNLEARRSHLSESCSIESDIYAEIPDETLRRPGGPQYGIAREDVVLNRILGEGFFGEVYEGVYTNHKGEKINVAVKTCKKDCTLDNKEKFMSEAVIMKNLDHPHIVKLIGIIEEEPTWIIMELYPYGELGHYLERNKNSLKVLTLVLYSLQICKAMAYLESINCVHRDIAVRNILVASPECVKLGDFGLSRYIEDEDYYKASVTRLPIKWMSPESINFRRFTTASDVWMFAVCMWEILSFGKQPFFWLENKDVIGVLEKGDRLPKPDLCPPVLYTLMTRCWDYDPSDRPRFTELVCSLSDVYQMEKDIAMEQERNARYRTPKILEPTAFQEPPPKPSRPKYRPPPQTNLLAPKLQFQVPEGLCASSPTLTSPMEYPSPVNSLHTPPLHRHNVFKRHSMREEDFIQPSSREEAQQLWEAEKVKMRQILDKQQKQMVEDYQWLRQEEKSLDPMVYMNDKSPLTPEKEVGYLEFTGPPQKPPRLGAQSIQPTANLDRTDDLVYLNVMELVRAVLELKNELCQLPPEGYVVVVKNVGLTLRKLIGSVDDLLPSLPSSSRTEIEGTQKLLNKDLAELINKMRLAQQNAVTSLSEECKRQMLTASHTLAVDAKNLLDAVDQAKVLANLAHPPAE

kinases [4] = target: kinases (Homo sapiens, UniProt O14757); conditions: CHEK1 (CHK1) FRET-Z-Lyte SP; Test Conc(μM):ATP Conc(μM) 1:50
Sequence of kinases (Homo sapiens, UniProt O14757) (O14757 whole entry): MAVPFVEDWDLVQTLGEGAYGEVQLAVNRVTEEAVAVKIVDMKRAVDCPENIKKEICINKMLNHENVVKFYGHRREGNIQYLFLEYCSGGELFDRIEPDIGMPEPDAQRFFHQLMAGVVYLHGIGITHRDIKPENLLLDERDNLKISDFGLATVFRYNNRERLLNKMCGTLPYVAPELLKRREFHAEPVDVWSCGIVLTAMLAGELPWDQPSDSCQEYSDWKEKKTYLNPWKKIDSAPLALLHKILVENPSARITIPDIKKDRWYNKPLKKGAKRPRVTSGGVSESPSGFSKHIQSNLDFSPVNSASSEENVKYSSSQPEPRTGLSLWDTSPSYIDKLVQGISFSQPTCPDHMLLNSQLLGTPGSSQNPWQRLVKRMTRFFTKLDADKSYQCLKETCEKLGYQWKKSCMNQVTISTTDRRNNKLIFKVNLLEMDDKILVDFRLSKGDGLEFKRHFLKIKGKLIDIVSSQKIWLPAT

kinases [5] = target: kinases (Homo sapiens, UniProt P54764); conditions: EPHA4 FRET-Z-Lyte SP; Test Conc(μM):ATP Conc(μM) 1:100
kinases [6] = target: kinases (Homo sapiens, UniProt P07333); conditions: CSF1R (FMS) FRET-Z-Lyte SP; Test Conc(μM):ATP Conc(μM) 1:500
kinases [7] = target: kinases (Homo sapiens, UniProt Q13555); conditions: CAMK2G FRET-Lantha SP; Test Conc(μM) 1
kinases [8] = target: kinases (Homo sapiens, UniProt Q15349); conditions: RPS6KA2 (RSK3) FRET-Z-Lyte SP; Test Conc(μM):ATP Conc(μM) 1:10
kinases [9] = target: kinases (Homo sapiens, UniProt Q8TF76); conditions: GSG2 (Haspin) FRET-Adapta SP; Test Conc(μM):ATP Conc(μM) 1:25
kinases [10] = target: kinases (Homo sapiens, UniProt O43353); conditions: RIPK2 FRET-Lantha SP; Test Conc(μM) 1
kinases [11] = target: kinases (Homo sapiens, UniProt Q9UPE1); conditions: STK23 (MSSK1) FRET-Z-Lyte SP; Test Conc(μM):ATP Conc(μM) 1:75
Sequence of kinases (Homo sapiens, UniProt Q9UPE1) (Q9UPE1 whole entry): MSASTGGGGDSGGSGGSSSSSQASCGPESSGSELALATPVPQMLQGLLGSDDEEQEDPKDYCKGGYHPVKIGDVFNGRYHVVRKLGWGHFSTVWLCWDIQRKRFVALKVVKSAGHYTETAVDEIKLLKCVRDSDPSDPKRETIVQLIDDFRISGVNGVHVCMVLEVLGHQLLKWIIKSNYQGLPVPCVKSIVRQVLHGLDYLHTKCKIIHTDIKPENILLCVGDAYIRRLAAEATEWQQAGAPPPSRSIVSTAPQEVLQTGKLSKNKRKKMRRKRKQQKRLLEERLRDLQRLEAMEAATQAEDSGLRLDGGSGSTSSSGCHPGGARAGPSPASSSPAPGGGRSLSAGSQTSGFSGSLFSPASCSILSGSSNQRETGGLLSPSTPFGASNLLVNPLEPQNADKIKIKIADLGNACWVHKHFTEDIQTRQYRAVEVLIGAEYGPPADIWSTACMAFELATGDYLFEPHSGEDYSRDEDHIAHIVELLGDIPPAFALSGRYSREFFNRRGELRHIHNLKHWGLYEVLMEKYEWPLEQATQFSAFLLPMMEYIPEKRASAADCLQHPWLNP

kinases [12] = target: kinases (Homo sapiens, UniProt P08581); conditions: MET (cMet) FRET-Z-Lyte SP; Test Conc(μM):ATP Conc(μM) 1:50
kinases [13] = target: kinases (Homo sapiens, UniProt P36897); conditions: TGFBR1 (ALK5) FRET-Lantha SP; Test Conc(μM) 1
kinases [14] = target: kinases (Homo sapiens, UniProt P27361); conditions: MAPK3 (ERK1) FRET-Z-Lyte SP; Test Conc(μM):ATP Conc(μM) 1:50
kinases [15] = target: kinases (Homo sapiens, UniProt P08069); conditions: IGF1R FRET-Z-Lyte SP; Test Conc(μM):ATP Conc(μM) 1:150
kinases [16] = target: kinases (Homo sapiens, UniProt Q8TDX7); conditions: NEK7 FRET-Z-Lyte SP; Test Conc(μM):ATP Conc(μM) 1:50
Sequence of kinases (Homo sapiens, UniProt Q8TDX7) (Q8TDX7 whole entry): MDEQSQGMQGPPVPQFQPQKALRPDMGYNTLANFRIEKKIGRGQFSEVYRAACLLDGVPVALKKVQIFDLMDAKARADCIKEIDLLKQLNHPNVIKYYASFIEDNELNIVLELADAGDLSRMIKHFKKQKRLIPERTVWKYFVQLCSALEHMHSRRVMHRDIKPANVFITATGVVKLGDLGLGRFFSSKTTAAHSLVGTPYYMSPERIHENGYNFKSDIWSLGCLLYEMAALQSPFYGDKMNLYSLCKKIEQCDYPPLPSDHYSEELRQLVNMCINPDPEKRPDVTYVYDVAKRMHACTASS

kinases [17] = target: kinases (Homo sapiens, UniProt P08922); conditions: ROS1 FRET-Z-Lyte SP; Test Conc(μM):ATP Conc(μM) 1:50
kinases [18] = target: kinases (Homo sapiens, UniProt P25098); conditions: ADRBK1 (GRK2) FRET-Z-Lyte SP; Test Conc(μM):ATP Conc(μM) 1:10
kinases [19] = target: kinases (Homo sapiens, UniProt Q9Y2U5); conditions: MAP3K2 (MEKK2) FRET-Lantha SP; Test Conc(μM) 1
kinases [20] = target: kinases (Homo sapiens, UniProt Q13557); conditions: CAMK2D FRET-Z-Lyte SP; Test Conc(μM):ATP Conc(μM) 1:5
kinases [21] = target: kinases (Homo sapiens, UniProt O14920); conditions: IKBKB (IKKbeta) FRET-Z-Lyte SP; Test Conc(μM):ATP Conc(μM) 1:5
kinases [22] = target: kinases (Homo sapiens, UniProt Q9H4A3); conditions: Test Conc(μM) 1
Sequence of kinases (Homo sapiens, UniProt Q9H4A3) (Q9H4A3 whole entry): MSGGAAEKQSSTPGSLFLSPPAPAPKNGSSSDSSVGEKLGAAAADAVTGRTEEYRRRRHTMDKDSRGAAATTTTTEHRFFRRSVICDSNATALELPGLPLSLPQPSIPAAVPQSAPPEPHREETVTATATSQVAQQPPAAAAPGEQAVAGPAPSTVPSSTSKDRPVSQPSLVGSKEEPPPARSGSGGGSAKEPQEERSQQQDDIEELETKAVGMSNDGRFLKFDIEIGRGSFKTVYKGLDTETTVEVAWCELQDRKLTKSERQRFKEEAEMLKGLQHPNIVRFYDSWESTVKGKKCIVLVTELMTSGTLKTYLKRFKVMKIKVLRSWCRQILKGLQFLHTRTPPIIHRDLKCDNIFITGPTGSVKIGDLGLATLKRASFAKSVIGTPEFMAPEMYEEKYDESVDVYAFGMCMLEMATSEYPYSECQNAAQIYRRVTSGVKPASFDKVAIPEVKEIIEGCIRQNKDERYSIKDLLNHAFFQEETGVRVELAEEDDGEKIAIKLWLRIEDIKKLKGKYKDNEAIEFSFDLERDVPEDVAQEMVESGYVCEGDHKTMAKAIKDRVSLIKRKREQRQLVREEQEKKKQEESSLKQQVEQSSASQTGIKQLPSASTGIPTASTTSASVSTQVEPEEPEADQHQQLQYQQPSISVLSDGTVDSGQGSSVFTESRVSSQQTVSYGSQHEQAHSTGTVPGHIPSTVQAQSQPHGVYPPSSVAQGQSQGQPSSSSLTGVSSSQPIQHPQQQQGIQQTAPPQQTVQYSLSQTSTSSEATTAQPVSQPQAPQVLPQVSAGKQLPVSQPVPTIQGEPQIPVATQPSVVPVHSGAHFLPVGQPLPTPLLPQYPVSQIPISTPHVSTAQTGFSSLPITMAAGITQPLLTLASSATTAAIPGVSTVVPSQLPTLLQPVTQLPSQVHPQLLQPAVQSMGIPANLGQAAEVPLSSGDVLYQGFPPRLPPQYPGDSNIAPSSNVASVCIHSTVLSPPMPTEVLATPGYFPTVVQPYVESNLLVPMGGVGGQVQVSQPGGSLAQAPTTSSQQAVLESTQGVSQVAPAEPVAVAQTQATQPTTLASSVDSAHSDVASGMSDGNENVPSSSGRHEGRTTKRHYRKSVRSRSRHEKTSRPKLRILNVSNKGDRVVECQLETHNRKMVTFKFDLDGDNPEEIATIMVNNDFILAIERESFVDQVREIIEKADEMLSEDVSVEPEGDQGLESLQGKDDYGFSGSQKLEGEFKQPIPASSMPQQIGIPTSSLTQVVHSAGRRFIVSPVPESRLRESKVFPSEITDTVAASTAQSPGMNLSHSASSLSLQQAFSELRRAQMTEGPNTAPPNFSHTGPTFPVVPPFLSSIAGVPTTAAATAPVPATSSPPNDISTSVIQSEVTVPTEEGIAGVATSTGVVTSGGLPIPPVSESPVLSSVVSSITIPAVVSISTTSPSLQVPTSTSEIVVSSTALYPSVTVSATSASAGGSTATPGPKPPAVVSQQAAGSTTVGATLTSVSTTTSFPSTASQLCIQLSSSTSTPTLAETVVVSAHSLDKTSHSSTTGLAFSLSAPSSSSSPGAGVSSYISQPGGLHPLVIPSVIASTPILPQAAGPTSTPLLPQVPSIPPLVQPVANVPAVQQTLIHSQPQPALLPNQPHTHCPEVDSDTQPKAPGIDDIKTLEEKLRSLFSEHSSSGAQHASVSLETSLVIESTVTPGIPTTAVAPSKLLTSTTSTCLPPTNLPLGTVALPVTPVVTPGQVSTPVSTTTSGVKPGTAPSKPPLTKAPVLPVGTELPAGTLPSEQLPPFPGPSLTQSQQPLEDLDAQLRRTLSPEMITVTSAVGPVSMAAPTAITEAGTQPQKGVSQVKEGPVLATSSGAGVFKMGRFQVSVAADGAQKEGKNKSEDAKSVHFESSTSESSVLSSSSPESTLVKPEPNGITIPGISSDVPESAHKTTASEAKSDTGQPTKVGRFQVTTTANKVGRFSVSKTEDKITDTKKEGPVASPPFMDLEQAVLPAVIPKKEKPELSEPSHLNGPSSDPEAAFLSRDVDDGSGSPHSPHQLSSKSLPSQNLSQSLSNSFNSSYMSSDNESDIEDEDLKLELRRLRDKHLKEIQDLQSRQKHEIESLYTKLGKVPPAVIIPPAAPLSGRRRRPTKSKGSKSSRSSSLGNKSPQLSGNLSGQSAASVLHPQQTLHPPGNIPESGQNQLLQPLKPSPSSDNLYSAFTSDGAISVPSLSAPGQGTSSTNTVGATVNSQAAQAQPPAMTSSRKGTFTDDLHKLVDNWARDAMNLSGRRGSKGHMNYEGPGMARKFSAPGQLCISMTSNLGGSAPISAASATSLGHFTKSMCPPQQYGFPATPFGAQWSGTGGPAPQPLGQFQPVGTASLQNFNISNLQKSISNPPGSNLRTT

kinases [23] = target: kinases (Homo sapiens, UniProt Q9H422); conditions: HIPK3 (YAK1) FRET-Z-Lyte SP; Test Conc(μM):ATP Conc(μM) 1:25
kinases [24] = target: kinases (Homo sapiens, UniProt O00329); conditions: PIK3CD/PIK3R1 FRET-Adapta SP; Test Conc(μM):ATP Conc(μM) 1:75
kinases [25] = target: kinases (Homo sapiens, UniProt P12931); conditions: SRC Hu Phos FRET-Z-Lyte SP; Test Conc(μM):ATP Conc(μM) 1:50
kinases [26] = target: kinases (Homo sapiens, UniProt O00750); conditions: PIK3C2B FRET-Adapta SP; Test Conc(μM):ATP Conc(μM) 1:10
kinases [27] = target: kinases (Homo sapiens, UniProt Q15569); conditions: TESK1 FRET-Lantha SP; Test Conc(μM) 1
kinases [28] = target: kinases (Homo sapiens, UniProt P51812); conditions: RPS6KA3 (RSK2) FRET-Z-Lyte SP; Test Conc(μM):ATP Conc(μM) 1:10
[29] = MAPK14 (p38a) Direct Z-Lyte SP, Test Conc(μM):ATP Conc(μM) 1:500
[30] = MAPK14 (p38a)Cascade Z-Lyte SP, Test Conc(μM):ATP Conc(μM) 1:100

Sequence of kinases (Homo sapiens, UniProt Q16539) (Q16539 whole entry): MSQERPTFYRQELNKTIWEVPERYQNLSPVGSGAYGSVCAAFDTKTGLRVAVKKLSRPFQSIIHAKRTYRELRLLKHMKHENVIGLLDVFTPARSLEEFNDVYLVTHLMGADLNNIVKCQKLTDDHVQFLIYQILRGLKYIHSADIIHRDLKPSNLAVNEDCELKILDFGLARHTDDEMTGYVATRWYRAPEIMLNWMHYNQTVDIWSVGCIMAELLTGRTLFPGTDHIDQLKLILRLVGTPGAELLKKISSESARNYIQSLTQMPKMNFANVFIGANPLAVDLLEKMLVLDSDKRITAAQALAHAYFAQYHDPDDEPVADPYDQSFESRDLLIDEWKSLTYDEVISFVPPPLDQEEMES

| SMILES | Mean Inhib (%) (kinases [2]; [29]) | Mean Inhib (%) (kinases [2]; [30]) | Mean Inhib (%) (kinases [3]) | Mean Inhib (%) (kinases [4]) | Mean Inhib (%) (kinases [5]) | Mean Inhib (%) (kinases [6]) | Mean Inhib (%) (kinases [7]) | Mean Inhib (%) (kinases [8]) | Mean Inhib (%) (kinases [9]) | Mean Inhib (%) (kinases [10]) | Mean Inhib (%) (kinases [11]) | Mean Inhib (%) (kinases [12]) | Mean Inhib (%) (kinases [13]) | Mean Inhib (%) (kinases [14]) | Mean Inhib (%) (kinases [15]) | Mean Inhib (%) (kinases [16]) | Mean Inhib (%) (kinases [17]) | Mean Inhib (%) (kinases [18]) | Mean Inhib (%) (kinases [19]) | Mean Inhib (%) (kinases [20]) | other results |
| --- | --- | --- | --- | --- | --- | --- | --- | --- | --- | --- | --- | --- | --- | --- | --- | --- | --- | --- | --- | --- | --- |
| Cc1ccc(NC(=O)c2ccnc(N3CCOCC3)c2)cc1Nc1ccnc(N2CC(C)OC(C)C2)n1 (stereo not shown) [compound 3] | 79.8% | 59.0% | 8.5% | 6.3% | 6.9% | 12.1% | −1.7% | 9.0% | −5.6% | 13.0% | 4.3% | 0.4% | 5.3% | 5.1% | 11.6% | 7.4% | 10.0% | 8.4% | 3.5% | 8.1% | Mean Inhib (%) (kinases [1]; CDK13 Cyclin K FRET-Lantha SP): 5.4%; Mean Inhib (%) (kinases [21]): 0.6%; Mean Inhib (%) (kinases [22]; WNK1 FRET-Lantha SP): 2.7%; Mean Inhib (%) (kinases [23]): 0.6%; Mean Inhib (%) (kinases [24]): 1.0%; Mean Inhib (%) (kinases [25]): 14.3%; Mean Inhib (%) (kinases [26]): 3.7%; Mean Inhib (%) (kinases [27]): −2.5%; Mean Inhib (%) (kinases [28]): 0.0% |
| Cc1cc(Oc2ccnc(Nc3ccc(S(N)(=O)=O)cc3)c2)c(-c2ccccn2)nc1C [compound 65] | 19.9% | 13.5% | −2.5% | 14.8% | 47.0% | 20.0% | 1.3% | 0.2% | −1.9% | 64.0% | −4.8% | 2.5% | 99.6% | 1.1% | 6.5% | 6.9% | 8.9% | 1.0% | 5.7% | 0.3% | CDK13 Cyclin K FRET-Lantha SP Mean Mean Inhib (%) (kinases [1]; CDK13 Cyclin K): 4.1%; Mean Inhib (%) (kinases [21]): −2.5%; WNK1 FRET-Lantha SP Mean Mean Inhib (%) (kinases [22]; WNK1): 5.3%; Mean Inhib (%) (kinases [23]): −0.3%; Mean Inhib (%) (kinases [24]): 23.8%; Mean Inhib (%) (kinases [25]): 54.4%; Mean Inhib (%) (kinases [26]): −0.9%; Mean Inhib (%) (kinases [27]): 15.5%; Mean Inhib (%) (kinases [28]): −3.2% |
